Test results from ChEMBL document CHEMBL6127085, “Design, synthesis and evaluation of novel LpxC inhibitors containing a hydrazone moiety as Gram-negative antibacterial agents” (Eur J Med Chem, 2024).
Values after ≈ are worked out from the molar mass of the structure shown.

Tests used:
Pseudomonas aeruginosa [1] = assay: Antibacterial activity against Pseudomonas aeruginosa clinical isolate PAE22-1 assessed as reduction in bacterial growth measured after 18 to 24 hrs by CLSI protocol based method; format: functional; conditions: time 18-24 hrs
Klebsiella pneumoniae [2] = assay: Antibacterial activity against Klebsiella pneumoniae ATCC700603 assessed as reduction in bacterial growth measured after 18 to 24 hrs by CLSI protocol based method; format: functional; conditions: time 18-24 hrs
Escherichia coli = assay: Antibacterial activity against Escherichia coli ATCC25922 assessed as reduction in bacterial growth measured after 18 to 24 hrs by CLSI protocol based method; format: functional; conditions: time 18-24 hrs
Pseudomonas aeruginosa [3] = assay: Antibacterial activity against Pseudomonas aeruginosa ATCC27853 assessed as reduction in bacterial growth measured after 18 to 24 hrs by CLSI protocol based method; format: functional; conditions: time 18-24 hrs
Klebsiella pneumoniae [4] = assay: Antibacterial activity against Klebsiella pneumoniae clinical isolate KPN+22-1 assessed as reduction in bacterial growth measured after 18 to 24 hrs by CLSI protocol based method; format: functional; conditions: time 18-24 hrs
[5] = Metabolic stability in rat liver microsomes assessed as half life at 1 uM preincubated for 5 mins followed by NADPH addition and measured after 5 to 60 mins by LC-MS analysis; format: ADME, Microsome; conditions: liver microsomes, time 10-65 min
[6] = Metabolic stability in rat liver microsomes assessed as intrinsic clearance at 1 uM preincubated for 5 mins followed by NADPH addition and measured after 5 to 60 mins by LC-MS analysis; format: ADME, Microsome; conditions: liver microsomes, time 10-65 min, read-out: CLH
[7] = Metabolic stability in mouse liver microsomes assessed as half life at 1 uM preincubated for 5 mins followed by NADPH addition and measured after 5 to 60 mins by LC-MS analysis; format: ADME, Microsome; conditions: liver microsomes, time 10-65 min
[8] = Intrinsic clearance in mouse; format: ADME, organism-based; conditions: read-out: CLH
[9] = Intrinsic clearance in human; format: ADME; conditions: read-out: CLH
[10] = Metabolic stability in human liver microsomes assessed as intrinsic clearance at 1 uM preincubated for 5 mins followed by NADPH addition and measured after 5 to 60 mins by LC-MS analysis; format: ADME, Microsome; conditions: time 10-65 min, read-out: CLH
[11] = Metabolic stability in human liver microsomes assessed as half life at 1 uM preincubated for 5 mins followed by NADPH addition and measured after 5 to 60 mins by LC-MS analysis; format: ADME, Microsome; conditions: liver microsomes, time 10-65 min
[12] = Metabolic stability in mouse liver microsomes assessed as intrinsic clearance at 1 uM preincubated for 5 mins followed by NADPH addition and measured after 5 to 60 mins by LC-MS analysis; format: ADME, Microsome; conditions: liver microsomes, time 10-65 min, read-out: CLH
[13] = Intrinsic clearance in rat; format: ADME; conditions: read-out: CLH

Row | SMILES | MIC (Pseudomonas aeruginosa [1]) [µg/mL] | MIC (Klebsiella pneumoniae [2]) [µg/mL] | MIC (Escherichia coli) [µg/mL] | MIC (Pseudomonas aeruginosa [3]) [µg/mL] | MIC (Klebsiella pneumoniae [4]) [µg/mL] | half-life at 1 µM [5] [h] | microsomal CLint at 1 µM [6] [µL/min/mg] | half-life at 1 µM [7] [h] | CLint scaled [8] [mL/min/kg] | CLint scaled [9] [mL/min/kg] | microsomal CLint at 1 µM [10] [µL/min/mg] | half-life at 1 µM [11] [h] | microsomal CLint at 1 µM [12] [µL/min/mg] | CLint scaled [13] [mL/min/kg]
1 | CCC(=O)N1CCN(/N=C/c2ccc(C#Cc3ccc(C(=O)N[C@H](C(=O)NO)[C@@H](C)O)cc3)cn2)CC1 | 16 (≈ 31.6 µM) | > 64 | 8 (≈ 15.8 µM) | 16 (≈ 31.6 µM) | 32 (≈ 63.2 µM) | – | – | – | – | – | – | – | – | –
2 | O=C(NO)C1CN(c2ccc(C#Cc3ccc(/C=N/N4CCOCC4)cc3)cc2)C(=O)O1 (stereo not drawn) | > 64 | – | 1 (≈ 2.3 µM) | – | 8 (≈ 18.4 µM) | – | – | – | – | – | – | – | – | –
3 | C[C@@H](O)[C@H](NC(=O)c1ccc(C#Cc2ccc(/C=N/N3CCN(C(=O)C(C)(C)C)CC3)cc2)cc1)C(=O)NO | > 32 | > 32 | 0.25 (≈ 0.468 µM) | > 32 | 8 (≈ 15 µM) | 1.48 | 15.6 | 2.53 | 36.6 | 18.4 | 19.4 | 1.37 | 9.29 | 28.1
4 | C[C@@H](O)[C@H](NC(=O)c1ccc(C#Cc2ccc(/C=N/N3CCN(C4CCCC4)CC3)cc2)cc1)C(=O)NO | 32 (≈ 61.8 µM) | > 64 | 2 (≈ 3.86 µM) | > 64 | 32 (≈ 61.8 µM) | – | – | – | – | – | – | – | – | –
5 | CCOC(=O)N1CCN(/N=C/c2ccc(C#Cc3ccc(C(=O)N[C@H](C(=O)NO)[C@@H](C)O)cc3)cc2)CC1 | 8 (≈ 15.3 µM) | 16 (≈ 30.7 µM) | 0.06 (≈ 0.115 µM) | 8 (≈ 15.3 µM) | 4 (≈ 7.67 µM) | – | – | – | – | – | – | – | – | –
6 | C[C@@H](O)[C@H](NC(=O)c1ccc(C#Cc2ccc(/C=N/N3CCN(C)CC3)nc2)cc1)C(=O)NO | 8 (≈ 17.2 µM) | – | 8 (≈ 17.2 µM) | 8 (≈ 17.2 µM) | 32 (≈ 68.9 µM) | – | – | – | – | – | – | – | – | –
7 | CCN1CCN(/N=C/c2ccc(C#Cc3ccc(C(=O)N[C@H](C(=O)NO)[C@@H](C)O)cc3)cn2)CC1 | 8 (≈ 16.7 µM) | > 64 | 16 (≈ 33.4 µM) | 4 (≈ 8.36 µM) | 64 (≈ 134 µM) | – | – | – | – | – | – | – | – | –

Continued by falling MIC (Pseudomonas aeruginosa [1]), values first:

Row | MIC (Pseudomonas aeruginosa [1]) [µg/mL] | MIC (Klebsiella pneumoniae [2]) [µg/mL] | MIC (Escherichia coli) [µg/mL] | MIC (Pseudomonas aeruginosa [3]) [µg/mL] | MIC (Klebsiella pneumoniae [4]) [µg/mL] | half-life at 1 µM [5] [h] | microsomal CLint at 1 µM [6] [µL/min/mg] | half-life at 1 µM [7] [h] | CLint scaled [8] [mL/min/kg] | CLint scaled [9] [mL/min/kg] | microsomal CLint at 1 µM [10] [µL/min/mg] | half-life at 1 µM [11] [h] | microsomal CLint at 1 µM [12] [µL/min/mg] | CLint scaled [13] [mL/min/kg] | SMILES
8 | 8 (≈ 15.3 µM) | > 64 | 2 (≈ 3.83 µM) | 16 (≈ 30.6 µM) | 32 (≈ 61.2 µM) | – | – | – | – | – | – | – | – | – | CCOC(=O)N1CCN(/N=C/c2ccc(C#Cc3ccc(C(=O)N[C@H](C(=O)NO)[C@@H](C)O)cc3)cn2)CC1
9 | 4 (≈ 7.68 µM) | 16 (≈ 30.7 µM) | 0.5 (≈ 0.96 µM) | 8 (≈ 15.4 µM) | 2 (≈ 3.84 µM) | – | – | – | – | – | – | – | – | – | C[C@@H](O)[C@H](NC(=O)c1ccc(C#Cc2ccc(/C=N/N3CCN(C(=O)N(C)C)CC3)cc2)cc1)C(=O)NO
10 | 4 (≈ 9.19 µM) | – | 2 (≈ 4.59 µM) | > 64 | > 64 | – | – | – | – | – | – | – | – | – | C[C@@H](O)[C@H](NC(=O)c1ccc(C#Cc2ccc(/C=N/N3CCCC3)nc2)cc1)C(=O)NO
11 | 4 (≈ 7.73 µM) | 16 (≈ 30.9 µM) | 0.03 (≈ 0.058 µM) | 2 (≈ 3.86 µM) | 2 (≈ 3.86 µM) | 4.58 | 5.05 | 2.08 | 48 | 4.47 | 4.73 | 4.9 | 12.2 | 9.09 | C[C@@H](O)[C@H](NC(=O)c1ccc(C#Cc2ccc(/C=N/N3CCN(C(=O)C4CC4)CC3)cc2)cc1)C(=O)NO
12 | 2 (≈ 4.45 µM) | – | 1 (≈ 2.22 µM) | 16 (≈ 35.6 µM) | 8 (≈ 17.8 µM) | – | – | – | – | – | – | – | – | – | C[C@@H](O)[C@H](NC(=O)c1ccc(C#Cc2ccc(/C=N/N3CCCCC3)nc2)cc1)C(=O)NO
13 | 2 (≈ 4.19 µM) | 16 (≈ 33.5 µM) | 0.5 (≈ 1.05 µM) | 4 (≈ 8.38 µM) | 4 (≈ 8.38 µM) | – | – | – | – | – | – | – | – | – | CCN1CCN(/N=C/c2ccc(C#Cc3ccc(C(=O)N[C@H](C(=O)NO)[C@@H](C)O)cc3)cc2)CC1
